We go through 1 compound from patent US20240335425A1, “PHARMACEUTICAL COMPOSITIONS OF ALPHA-2-ADRENERGIC RECEPTOR AGONISTS AND THEIR USE FOR IMPROVING VISION” (Allergan, Inc., priority 2020, published 2024).

The target of series [1] is T1, bovine alpha adrenergic 1A receptor (Bos taurus, UniProt P18130).
T1 construct: expressed in transfected cells
T1 sequence (P18130 1-466): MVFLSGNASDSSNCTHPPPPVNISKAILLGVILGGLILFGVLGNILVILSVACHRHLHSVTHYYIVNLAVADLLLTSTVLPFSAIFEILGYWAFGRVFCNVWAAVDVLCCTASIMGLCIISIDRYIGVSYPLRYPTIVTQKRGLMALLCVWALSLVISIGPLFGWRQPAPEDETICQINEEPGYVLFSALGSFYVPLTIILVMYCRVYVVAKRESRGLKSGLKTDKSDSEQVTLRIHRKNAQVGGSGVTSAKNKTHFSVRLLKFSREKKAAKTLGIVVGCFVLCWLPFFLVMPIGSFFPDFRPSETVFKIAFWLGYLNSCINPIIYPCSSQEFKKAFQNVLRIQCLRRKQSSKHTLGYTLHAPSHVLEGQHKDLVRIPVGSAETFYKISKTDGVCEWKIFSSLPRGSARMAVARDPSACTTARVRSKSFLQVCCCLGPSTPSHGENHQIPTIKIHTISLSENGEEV
Description: FLIPR calcium assay, HEK293 cells stably expressing bovine alpha 1A receptor. The format is cell-based. The settings on record: HEK293 stable cell line, peak calcium signal; read-out: bovine alpha1A EC50 (nm). The method, then:
(§1) An in vitro FLIPR (fluorometric image plate reader) assay was performed on several compounds, including the compound of Formula I (entry 1 in Table 1).
Specifically, four HEK293 stable cell lines were used in the FLIPR assay. The HEK293 cell line which stably expressed the bovine alpha adrenergic 1A receptor was used to characterize the alpha1 pharmacology. The alpha-2 adrenergic receptor family is a G coupled G-protein receptor. Therefore, in order to use these cell lines in the calcium based FLIPR assay, the chimeric G-protein Gqi5 was used to force the coupling of the human alpha-2A, alpha-2B, and alpha-2C receptors to the calcium pathway. […]
(§2) The receptor activation was initiated by the addition of the appropriate dilutions of compounds and the transient calcium signal was captured. The peak height of the calcium curve was determined and utilized for calculation of EC50 and relative efficacy values using Activity Base software. EC50 was calculated using a 4 Parameter Logistic Equation: y=A+((B−A)/(1+((C/x)^D))) where A and B represents the bottom and top plateau of the curve; C represents the EC50 value; D represents the slope factor; and x and y represent the original x (drug concentration) and y (fluorescence signal, RFU) values.

Series [2] concerns the target T2, human alpha-2A receptor (Homo sapiens, UniProt P08913).
T2 construct: expressed in transfected cells
T2 sequence (P08913 1-465): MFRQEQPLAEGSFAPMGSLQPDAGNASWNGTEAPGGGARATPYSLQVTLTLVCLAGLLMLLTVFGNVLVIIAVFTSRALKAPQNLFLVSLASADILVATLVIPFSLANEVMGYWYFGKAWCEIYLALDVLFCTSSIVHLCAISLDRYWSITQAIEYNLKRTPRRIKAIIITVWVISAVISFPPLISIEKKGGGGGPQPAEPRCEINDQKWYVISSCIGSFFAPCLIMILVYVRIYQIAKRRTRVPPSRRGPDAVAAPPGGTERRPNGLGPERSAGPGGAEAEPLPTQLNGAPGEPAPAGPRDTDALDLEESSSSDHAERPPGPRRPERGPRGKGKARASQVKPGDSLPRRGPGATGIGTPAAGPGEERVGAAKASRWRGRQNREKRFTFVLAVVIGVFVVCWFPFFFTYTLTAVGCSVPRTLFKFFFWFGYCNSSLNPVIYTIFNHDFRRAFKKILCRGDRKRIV
In words: FLIPR calcium assay, HEK293 cells with human alpha-2A receptor coupled via chimeric Gqi5. The settings on record: HEK293 stable cell line with Gqi5, peak calcium signal; read-out: human alpha2A EC50 (nm). The format is cell-based. The method, then:
as §1
Specifically, four HEK293 stable cell lines were used in the FLIPR assay. The HEK293 cell line which stably expressed the bovine alpha adrenergic 1A receptor was used to characterize the alpha1 pharmacology. The alpha-2 adrenergic receptor family is a G coupled G-protein receptor. Therefore, in order to use these cell lines in the calcium based FLIPR assay, the chimeric G-protein Gqi5 was used to force the coupling of the human alpha-2A, alpha-2B, and alpha-2C receptors to the calcium pathway. Cells were plated, in triplicate, in poly-D-lysine coated 384-well plates at 25,000 cells per well and grown overnight in DMEM supplemented with 10% fetal bovine serum. For FLIPR evaluation, cells were washed twice with HBSS/HEPES buffer (1× Hanks Buffered Salt Solution, 20 mM HEPES, pH 7.4) prior to the addition of Fluo-4-AM (4 uM Fluo-4-AM, 0.04% pluronic acid in HBSS/HEPES buffer), a calcium-sensitive dye. Cells were loaded with dye for 40 minutes at 37° C., and then washed 4 times with HBSS/HEPES buffer to remove the excess dye. The test compounds were profiled at concentrations between 0.64 nM and 10,000 nM using a […] dilution factor.
as §2

In series [3] the test system is healthy participants. Description: Clinical Study 1 in healthy individuals, single ascending dose. The format is in vivo, human. The following applies: left eye, 0.01% to 0.1% (w/v). An excerpt: In this study, 36 healthy participants (male and female; 40 to 65 years of age) are randomized to participate in single-ascending dose cohorts (designated Cohorts 1, 2, and 3 as shown in Table 9 below) to evaluate safety, tolerability, pharmacokinetics, and target engagement of the compound of Formula I. In each cohort of this study 12 participants are randomized in a 3:1 ratio to receive an ophthalmic solution containing the compound of Formula I (9 participants) or vehicle (3 participants). Participants that are randomized to receive the ophthalmic solution containing the compound of Formula I are administered a single drop of the ophthalmic solution containing the compound of Formula I at doses ranging from 0.01% (w/v) to 0.1% (w/v) (Formulations A-C; see Examples 8-10), with the option of also using a 0.3% (w/v) dose (Formulation D; see Example 11), in the left eye, as indicated in Table 7 below (“SD” means single dose and “OS” means left eye).
Each participant is admitted to the study site on the evening before dosing (Day −1). […]
Safety and tolerability are evaluated by monitoring participants in the three cohorts of this study for exhibition/reporting of adverse events and monitoring characteristics/assessments such as vital signs, electrocardiogram measurements, clinical laboratory assessments, study intervention tolerability and drop comfort assessments, intraocular pressure measurements, slit-lamp biomicroscopy, and dilated funduscopic examination. Systemic and local pharmacokinetics of the compound of Formula I are evaluated by measuring plasma and tear concentrations of the compound of Formula I in the participants and also determining pharmacokinetic parameters such as area under the curve, clearance, half-life, maximum concentration, time to maximum concentration. Target engagement is measured by measuring the pupil size of the participants during the study. […]

Usually EC50 stands for the concentration needed to bring the measured effect to its halfway point. Regarding `Cc1c(N=C2NCCN2)ccc2[nH]cnc12` [Compound 1], in series [1], the EC50 is 286 nM. In addition, the EC50 in series [2] came to 0.7 nM. In series [3], the “pupil diameter compared with vehicle” value is “decrease in pupil diameter”; the safety and tolerability entry is “acceptable safety and tolerability profiles”; the systemic exposures result is listed as “sufficient safety margins”.
